# In patent US20130123367A1, “VINYLOGOUS CHALCONE DERIVATIVES AND THEIR MEDICAL USE” (MEDIZINISCHE UNIVERSITAT WIEN, priority 2010, published 2013):
# Like-named read-outs stand apart in the source and are kept apart here.
# How the values were obtained:
# [1] = system: chronic lymphocytic leukemia (CLL) cells in co-culture with stromal cells; experiment: Co-culture model of primary CLL cells and stromal cells (CellTiter-Blue viability); format: cell-based; details: 48 h incubation; mean of 5 patients; FIG. 7
# Text: FIG. 7: […] Data points represent the arithmetic mean of 5 patients calculated in relation to the control. […] The final DMSO concentration was 0.5%. […] In many tumors, the microenvironment plays a major role for the survival of malignant cells. In chronic lymphocytic leukemia (CLL), it has been shown that interaction with the microenvironment, among other things, promotes the survival of tumor cells during chemotherapy. Thus, co-culture models have been developed which better reflect the in vivo situation. The inventors used such a pre-clinical model for drug incubation to study the effect of stromal cells on viability.
# [2] = system: Jurkat (T-cell acute lymphoblastic leukemia); experiment: Cell viability assay using EZ4U viability kit, Jurkat; format: cell-based; details: Homo sapiens
# Method: (§1) For quantification, cells are treated with a tetrazolium salt as indicator of cell viability. […] Then, the solution is analyzed photometrically at 450 nm with 620 nm as reference.
# (§2) The final DMSO concentration was 0.5%. […] Then, wells were filled with 20 μl substrate solution for 2 to 4 hours and analyzed.
# (§3) Cell viability was calculated relative to DMSO control for data comparison. IC50 values (50% inhibition of cell growth) were determined with GraphPad Prism® (Version 4.03) using nonlinear regression (sigmoidal dose-response with variable slope).
# [3] = system: healthy peripheral blood mononuclear cells (PBMC); experiment: Effect on healthy PBMC (CellTiter-Blue viability)
# Method: FIG. 8: Effect of compounds 1 and 22 according to the invention as well as the control drugs fludarabine and cyclophosphamide on the viability of healthy peripheral blood mononuclear cells (PBMC) in suspension culture after 48 h incubation. Data points represent one individual calculated in relation to the control. Viability was measured using the CellTiter Blue assay (Promega, Madison, Wis., USA), and cells incubated in solvent only were used as control.
# For quantification, cells were treated with resazurin (7-hydroxy-3H-phenoxazin-3-one 10-oxide) as indicator of cell viability. The method is based on the finding that living cells are able to reduce the non-fluorescent blue dye into the pink colored and highly red fluorescent resorufine. After adding the substrate the cells are incubated for 2 to 4 hours. Then, the solution is analyzed at 560 nm Ex/590 nm Em on a fluorometer. Appropriate cell density for seeding and duration of treatment with the substrate were determined in preliminary experiments.
# First, cells were seeded in 96 well plates and then growth medium was added to each well to get a final volume of 80 μl. Compounds to be tested were diluted with medium from a 10 mM stock solution in DMSO to get different concentrations, and 20 μl of these solutions were added to the wells. The final DMSO concentration was 0.5%. All treatments and controls were performed in at least triplicates. Cells were incubated at 37° C. and 5% CO2 for 48 h. Then, 20 μl substrate solution was added to the wells, plates were incubated for 3 hours and analyzed.
# The impact of the compounds according to the invention on healthy cells was assessed using peripheral blood mononuclear cells (PBMC). Cell viability was tested using the CellTiter-Blue Cell Viability Assay (Promega, Madison, Wis., USA) as described in Example 7.
# [4] = system: SU-DHL-6 or SU-DHL-9 NHL cells; experiment: Annexin V-FITC / propidium iodide staining, early apoptosis in NHL cells; format: cell-based; details: 48 h incubation; FIG. 2
# Method: FIG. 2. Changes in early apoptosis in SU-DHL-6 or SU-DHL-9 NHL cells after 48 h incubation with compounds 1 and 22, respectively. Effect of compound 1 in a) SU-DHL-6 and b) SU-DHL-9, and effect of compound 22 in c) SU-DHL-6 and d) SU-DHL-9. Apoptosis was detected using propidium iodide/Annexin V FACS staining (Bender MedSystems). Viability was detected using the EZ4U viability kit (Biomedica).
# Annexin V binds to phosphatidylserine which is exposed at the cell surface during execution of apoptosis. […] The final DMSO concentration was 0.5%. All treatments and controls were performed twice. […] Then, growth medium was removed by centrifugation, the supernatant discarded and 200 μl of an Annexin V solution were added. After 10 minutes in the dark, cells were washed once with Annexin buffer and the solution removed by centrifugation. The supernatant was discarded again and cells were suspended in 200 μl of a propidium iodide solution. Cells were measured by flow cytometry with a total of 10 000 events. Data were analyzed with CellQuest Pro™.
# [5] = system: HL60 (Acute promyelocytic leukemia); experiment: Cell viability assay using EZ4U viability kit, HL60; format: cell-based; details: Homo sapiens
# Method: as §1, §2, §3
# [6] = system: primary chronic lymphocytic leukemia (CLL) cells; experiment: In vitro drug test in primary CLL cells (CellTiter-Blue viability); format: cell-based; details: 48 h incubation; mean of 15 patients; FIG. 6
# Text: FIG. 6: […] Data points represent the arithmetic mean of 15 patients calculated in relation to the control. […] The final DMSO concentration was 0.5%.
# [7] = system: colon cancer cell line SW480; experiment: Cell proliferation assay using crystal violet, SW480; format: cell-based; details: Homo sapiens, n = 3, 24 h incubation
# Method: For quantification, cells are treated with crystal violet, a dye that stains proteins. After washing away of excess dye, the remaining crystal violet is dissolved in a sodium citrate solution. The solution is analyzed photometrically at 590 nm. The optical density of this solution depends on the concentration of crystal violet and therefore on the amount of cells. […] To reduce effects of evaporation, only the inner 60 wells of 96-well plates (coated with 0.1% gelatine solution for studies with HUVEC) were used for experiments.
# Cells were seeded at a density of 5 000 cells per well in 100 μl growth medium (HUVEC) or 20 000 (HCT116), 15 000 (SW480 and 518A2) or 10 000 (HT29) cells per well in 200 μl growth medium in 55 wells per plate. 5 wells were filled with medium only. Additionally, a 96-well plate with cells in 12 wells and medium in 6 wells was prepared as T0-plate. The next day, additional 98 μl of growth medium were added in every well (only HUVEC).
# Cells were treated with 2 μl of the working solution 24 h after seeding. Final compound concentrations in the well were 10 μM for the first round of screening. The final DMSO concentration was 0.5%. […] After finishing the addition of compounds, the T0-plate was stained with crystal violet for giving the cell density at time point zero. Before staining, the growth medium was poured away. Wells were filled with 50 μl crystal violet solution for 10 min. Then the staining solution was washed away with water. Since crystal violet is environmentally hazardous the waste was collected and disposed in an appropriate manner. After air drying of the plates the crystal violet on the cells was dissolved in 100 μl of sodium citrate solution, and the absorption was measured with a plate reader at 590 nm.
# as §3, with “Mean values were corrected with the absorption of stained medium and the corrected absorption of T0 cells. Cell” for “Cell”, “growth” for “viability”
# Compounds showing an inhibition of proliferation of more than 50% at a concentration of 10 μM were defined as active, and their IC50-values were determined.
# [8] = 24 h incubation, read-out: IC50 (nM) Jurkat 24 h (converted)
# [9] = 48 h incubation, read-out: IC50 (nM) Jurkat 48 h (converted)
# [10] = HL-60, 24 h incubation, read-out: IC50 (nM) HL60 24 h
# [11] = HL-60, 48 h incubation, read-out: IC50 (nM) HL60 48 h
"IC50 [2, 8]","IC50 [2, 9]","IC50 [5, 10]","IC50 [5, 11]",IC50 [7],Compound,viability of CLL cells in co-culture with stromal cells [1],viability of healthy PBMC in suspension culture (toxicity) [3],early apoptosis (propidium iodide/Annexin V FACS staining) [4],viability of primary CLL cells in suspension culture [6]
1110 nM,630 nM,490 nM,170 nM,520 nM,"COc1ccccc1/C=C/C=C/C(=O)c1cc(OC)c(OC)c(OC)c1 [Compound 1, 5-(2-Methoxyphenyl)-1-(3′,4′,5′-trimethoxyphenyl)-2,4-pentadiene-1-one]",higher cytotoxicity than the control drugs fludarabine and cyclophosphamide,less toxic,induce early apoptosis,effective in CLL cells at lower concentrations than the standard therapeutic drugs fludarabine and cyclophosphamide
7840 nM,7210 nM,10 nM,20 nM,30 nM,"CCOc1ccccc1C(=O)/C=C/c1ccc2ccccc2c1 [Compound 22, 3-(2-Naphthyl)-1-(2′-ethoxyphenyl)-2-propene-1-one]",higher cytotoxicity than the control drugs fludarabine and cyclophosphamide,less toxic,induce early apoptosis,effective in CLL cells at lower concentrations than the standard therapeutic drugs fludarabine and cyclophosphamide
